Reference: ChEMBL document CHEMBL4359816, “Discovery and Optimization of Quinolinone Derivatives as Potent, Selective, and Orally Bioavailable Mutant Isocitrate Dehydrogenase 1 (mIDH1) Inhibitors” (J Med Chem, 2019)
Values after ≈ are worked out from the molar mass of the structure shown.

Key:
[1] = Metabolic stability in mouse liver microsomes assessed as compound remaining after 30 mins; assay type: ADME, Microsome; conditions: read-out: Stability
[2] = biological target: Isocitrate dehydrogenase [NADP] cytoplasmic (Homo sapiens, UniProt O75874); assay: Inhibition of wild-type IDH1 (unknown origin) by NADPH fluorescence based assay
[3] = Metabolic stability in human liver microsomes assessed as compound remaining after 30 mins; assay type: ADME, Microsome; conditions: read-out: Stability
[4] = biological target: T1, Isocitrate dehydrogenase [NADP] cytoplasmic (Homo sapiens, UniProt O75874, R132C); assay: Inhibition of human Myc-DDK-tagged IDH1 R132C mutant expressed in human U87MG cells assessed as reduction in 2-HG levels after 24 hrs by RapidFire high-throughput mass spectrometry assay; assay type: cell-based
[5] = Half-life in BALB/c mouse at 5 mg/kg, po measured up to 24 hrs; assay type: ADME, organism-based; conditions: in vivo
[6] = biological target: T1, Isocitrate dehydrogenase [NADP] cytoplasmic; assay: Inhibition of IDH1 R132C mutant in human HCT116 cells assessed as reduction in 2-HG levels after 24 hrs by RapidFire high-throughput mass spectrometry assay; assay type: cell-based
[7] = AUC (0 to 8 hrs) in BALB/c mouse at 5 mg/kg, po measured up to 24 hrs; assay type: ADME, organism-based; set-up: dose 5 mg/kg, time < 8 hr, route oral; conditions: in vivo
[8] = Kinetic solubility of the compound; assay type: physicochemical; conditions: read-out: Kinetic_solubility
[9] = Total Cmax in BALB/c mouse at 5 mg/kg, po after 1 hr; assay type: ADME, organism-based; set-up: dose 5 mg/kg, route oral; conditions: in vivo
[10] = biological target: T1, Isocitrate dehydrogenase [NADP] cytoplasmic; assay: Inhibition of human Myc-DDK-tagged IDH1 R132C mutant assessed as reduction in NADPH consumption pre-incubated for 15 mins followed by alpha-ketoglutarate substrate and NADPH addition after 45 mins by diaphorase and resazurin dye based assay
[11] = Permeability of the compound by PAMPA; assay type: ADME; conditions: read-out: permeability
[12] = Total AUC (infinity) in rat at 1 mg/kg, iv or 5 mg/kg, po; assay type: ADME, organism-based; conditions: in vivo
[13] = Efflux ratio of apparent permeability from basolateral side to apical side over apical side to basolateral side in human Caco2 cells; assay type: ADME, cell-based; conditions: Caco-2
[14] = Protein binding in rat plasma; assay type: ADME, cell-free; conditions: read-out: PPB (converted)
[15] = Half-life in human hepatocytes; assay type: ADME, cell-based, Hepatocyte
[16] = Clearance in mouse at 1 mg/kg, iv or 5 mg/kg, po; assay type: ADME, organism-based; conditions: in vivo
[17] = Oral bioavailability in rat at 5 mg/kg; assay type: ADME, organism-based; conditions: in vivo
[18] = fAUC (infinity) in dog at 0.5 mg/kg, iv; assay type: ADME, organism-based, Canis lupus familiaris; conditions: in vivo
[19] = Protein binding in dog plasma; assay type: ADME, cell-free, Canis lupus familiaris; conditions: read-out: PPB (converted)
[20] = Clearance in rat at 1 mg/kg, iv or 5 mg/kg, po; assay type: ADME, organism-based; conditions: in vivo
[21] = Total AUC (infinity) in mouse at 1 mg/kg, iv or 5 mg/kg, po; assay type: ADME, organism-based; conditions: in vivo
[22] = fAUC (infinity) in rat at 1 mg/kg, iv or 5 mg/kg, po; assay type: ADME, organism-based; conditions: in vivo
[23] = Half-life in dog at 0.5 mg/kg, iv; assay type: ADME, organism-based, Canis lupus familiaris; conditions: in vivo
[24] = biological target: Isocitrate dehydrogenase [NADP] cytoplasmic (Homo sapiens, UniProt O75874, R132G); assay: Inhibition of human Myc-DDK-tagged IDH1 R132G mutant expressed in human U87MG cells assessed as reduction in 2-HG levels after 24 hrs by RapidFire high-throughput mass spectrometry assay; assay type: cell-based
[25] = Protein binding in human plasma; assay type: ADME, cell-free; conditions: read-out: PPB (converted)
[26] = Oral bioavailability in mouse at 5 mg/kg; assay type: ADME, organism-based; conditions: in vivo
[27] = Apparent permeability of the compound across apical side to basolateral side in human Caco2 cells; assay type: ADME, cell-based; conditions: Caco-2
[28] = Octanol/aqueous buffer partition coefficient, log D of the compound at pH 7.4; assay type: physicochemical
[29] = biological target: Isocitrate dehydrogenase [NADP] cytoplasmic (Homo sapiens, UniProt O75874, R132L); assay: Inhibition of human Myc-DDK-tagged IDH1 R132L mutant expressed in human U87MG cells assessed as reduction in 2-HG levels after 24 hrs by RapidFire high-throughput mass spectrometry assay; assay type: cell-based
[30] = Half-life in rat at 1 mg/kg, iv or 5 mg/kg, po; assay type: ADME, organism-based; conditions: in vivo
[31] = Cmax in rat at 1 mg/kg, iv or 5 mg/kg, po; assay type: ADME, organism-based; conditions: in vivo
[32] = biological target: Isocitrate dehydrogenase [NADP] cytoplasmic (Homo sapiens, UniProt O75874, R132S); assay: Inhibition of human Myc-DDK-tagged IDH1 R132S mutant expressed in human U87MG cells assessed as reduction in 2-HG levels after 24 hrs by RapidFire high-throughput mass spectrometry assay; assay type: cell-based
[33] = Protein binding in mouse plasma; assay type: ADME, cell-free; conditions: read-out: PPB (converted)
[34] = Total Cmax in mouse at 1 mg/kg, iv or 5 mg/kg, po; assay type: ADME, organism-based; conditions: in vivo
[35] = Intrinsic clearance in human hepatocytes; assay type: ADME, cell-based, Hepatocyte; conditions: read-out: CLH
[36] = fAUC (infinity) in mouse at 1 mg/kg, iv or 5 mg/kg, po; assay type: ADME, organism-based; conditions: in vivo
[37] = Total AUC (infinity) in dog at 0.5 mg/kg, iv; assay type: ADME, organism-based, Canis lupus familiaris; set-up: dose 0.5 mg/kg, time AUCmax, route intravenous; conditions: in vivo
[38] = Half-life in mouse at 1 mg/kg, iv or 5 mg/kg, po; assay type: ADME, organism-based; conditions: in vivo
[39] = Apparent permeability of the compound across basolateral side to apical side in human Caco2 cells; assay type: ADME, cell-based; conditions: Caco-2
[40] = Metabolic stability in rat liver microsomes assessed as compound remaining after 30 mins; assay type: ADME, Microsome; conditions: read-out: Stability
[41] = Clearance in dog at 0.5 mg/kg, iv; assay type: ADME, organism-based, Canis lupus familiaris; conditions: in vivo
[42] = test system: MDR1 (P-gp); assay: Efflux ratio of apparent permeability from basolateral side to apical side over apical side to basolateral side in MDCK cells harboring MDR1 (unknown origin) at 10 uM incubated for 2 hrs by LC-MS/MS analysis; assay type: ADME, cell-based, Canis lupus familiaris; conditions: dog
[43] = Total plasma concentration in BALB/c mouse at 5 mg/kg, po at 4 hrs; assay type: ADME, organism-based
[44] = organism: Homo sapiens; assay type: cell-based

T1 sequence (O75874 2-414 R132C limits assumed): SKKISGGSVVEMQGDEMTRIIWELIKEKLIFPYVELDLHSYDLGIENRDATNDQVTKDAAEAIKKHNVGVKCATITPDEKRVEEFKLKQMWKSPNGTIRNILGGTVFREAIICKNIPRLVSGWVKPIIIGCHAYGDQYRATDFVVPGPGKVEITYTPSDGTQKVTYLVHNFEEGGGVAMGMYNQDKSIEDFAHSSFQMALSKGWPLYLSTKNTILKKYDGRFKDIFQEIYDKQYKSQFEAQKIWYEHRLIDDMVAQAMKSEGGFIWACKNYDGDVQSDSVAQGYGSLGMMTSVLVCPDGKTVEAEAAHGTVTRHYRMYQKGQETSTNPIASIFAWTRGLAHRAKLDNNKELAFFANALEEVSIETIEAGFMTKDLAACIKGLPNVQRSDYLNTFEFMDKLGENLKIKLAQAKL
Sequence of Isocitrate dehydrogenase [NADP] cytoplasmic (Homo sapiens, UniProt O75874) (O75874 whole entry): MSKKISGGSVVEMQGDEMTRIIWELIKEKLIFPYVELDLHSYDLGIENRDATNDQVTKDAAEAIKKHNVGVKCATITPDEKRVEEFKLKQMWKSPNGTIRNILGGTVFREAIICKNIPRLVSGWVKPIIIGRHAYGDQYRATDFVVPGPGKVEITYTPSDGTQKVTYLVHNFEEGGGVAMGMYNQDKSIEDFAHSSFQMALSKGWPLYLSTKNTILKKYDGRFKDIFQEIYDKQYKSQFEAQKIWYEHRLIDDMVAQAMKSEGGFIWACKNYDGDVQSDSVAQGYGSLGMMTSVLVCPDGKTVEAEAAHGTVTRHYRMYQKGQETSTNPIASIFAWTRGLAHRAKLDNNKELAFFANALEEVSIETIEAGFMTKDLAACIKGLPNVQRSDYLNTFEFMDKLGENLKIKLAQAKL
Sequence of Isocitrate dehydrogenase [NADP] cytoplasmic (Homo sapiens, UniProt O75874, R132S) (O75874 2-414 R132S limits assumed): as the sequence (O75874 2-414 R132C limits assumed) above, with C131S counted along it
Sequence of Isocitrate dehydrogenase [NADP] cytoplasmic (Homo sapiens, UniProt O75874, R132L) (O75874 2-414 R132L limits assumed): as the sequence (O75874 2-414 R132C limits assumed) above, with C131L counted along it
Sequence of Isocitrate dehydrogenase [NADP] cytoplasmic (Homo sapiens, UniProt O75874, R132G) (O75874 2-414 R132G limits assumed): as the sequence (O75874 2-414 R132C limits assumed) above, with C131G counted along it

**Q.** Which remaining at 0.5 h [1] does the source give for Cc1nc(NCc2cc3cc(Cl)ccc3[nH]c2=O)ccc1C#N here?
**A.** 69%

**Q.** What about the IC50 [2] of the same molecule?
**A.** 75000 nM

**Q.** What about the remaining at 0.5 h [3] of the same molecule?
**A.** 84%

**Q.** What about the IC50 [4] of the same molecule?
**A.** 258 nM

**Q.** And the half-life [5]?
**A.** 3.57 h

**Q.** And the IC50 [6]?
**A.** 3210 nM

**Q.** What about the AUC(0-t) at 8 h [7] of the same molecule?
**A.** 2.66 µM·h

**Q.** And the solubility kinetic [8]?
**A.** 0.64 µM (≈ 0.208 µg/mL)

**Q.** What about the Cmax [9] of the same molecule?
**A.** 480 nM

**Q.** And the IC50 [10]?
**A.** 820 nM

**Q.** Which Papp [11] does the source give for COc1cc2[nH]c(=O)c([C@H](C)Nc3ncc(C#N)c(OC)n3)cc2cc1Cl here?
**A.** 12.7 ×10⁻⁶ cm/s

**Q.** And the AUC(0-inf) [12]?
**A.** 10.7 µM·h

**Q.** And the efflux ratio [13]?
**A.** 1.65

**Q.** What about the fraction unbound [14] of the same molecule?
**A.** 0.0045

**Q.** What about the half-life [15] of the same molecule?
**A.** 3.07 h

**Q.** What about the remaining at 0.5 h [3] of the same molecule?
**A.** 97%

**Q.** What about the clearance [16] of the same molecule?
**A.** 8.5 mL/min/kg

**Q.** And the bioavailability [17]?
**A.** 75%

**Q.** And the IC50 [4]?
**A.** 4 nM

**Q.** What about the fAUC [18] of the same molecule?
**A.** 0.132 µM·h

**Q.** And the fraction unbound [19]?
**A.** 0.0228

**Q.** What about the clearance [20] of the same molecule?
**A.** 16.4 mL/min/kg

**Q.** And the AUC(0-inf) [21]?
**A.** 21.5 µM·h

**Q.** What about the fAUC [22] of the same molecule?
**A.** 0.043 µM·h

**Q.** What about the half-life [23] of the same molecule?
**A.** 6.2 h

**Q.** And the IC50 [24]?
**A.** 3 nM

**Q.** What about the fraction unbound [25] of the same molecule?
**A.** 0.0144

**Q.** And the bioavailability [26]?
**A.** 85%

**Q.** What about the Papp A→B [27] of the same molecule?
**A.** 5.73 ×10⁻⁶ cm/s

**Q.** And the logD [28]?
**A.** 2.74

**Q.** And the IC50 [6]?
**A.** 40 nM

**Q.** And the IC50 [29]?
**A.** 5 nM

**Q.** What about the half-life [30] of the same molecule?
**A.** 2.6 h

**Q.** What about the Cmax [31] of the same molecule?
**A.** 1900 nM

**Q.** And the IC50 [32]?
**A.** 129 nM

**Q.** What about the fraction unbound [33] of the same molecule?
**A.** 0.0083

**Q.** What about the Cmax [34] of the same molecule?
**A.** 5200 nM

**Q.** And the CLint scaled [35]?
**A.** 19.1 mL/min/kg

**Q.** What about the fAUC [36] of the same molecule?
**A.** 0.178 µM·h

**Q.** And the AUC(0-inf) [37]?
**A.** 5.8 µM·h

**Q.** What about the half-life [38] of the same molecule?
**A.** 3.5 h

**Q.** What about the solubility kinetic [8] of the same molecule?
**A.** 5.7 µM (≈ 2.2 µg/mL)

**Q.** And the Papp B→A [39]?
**A.** 9.47 ×10⁻⁶ cm/s

**Q.** What about the remaining at 0.5 h [40] of the same molecule?
**A.** 88%

**Q.** And the clearance [41]?
**A.** 4.3 mL/min/kg

**Q.** And the IC50 [10]?
**A.** 36 nM

**Q.** Which efflux ratio at 2 h, 10 µM [42] does the source give for N#Cc1ccnc(N2C(=O)CC[C@H]2C(=O)N(c2cncc(F)c2)[C@H](C(=O)NC2CC(F)(F)C2)c2ccccc2Cl)c1 [IVOSIDENIB] here?
**A.** > 350

**Q.** Which results are given for COc1cc(NCc2cc3cc(Cl)ccc3[nH]c2=O)ccc1C#N?
**A.** remaining at 0.5 h [1]: 42%; IC50 [2]: 100000 nM; remaining at 0.5 h [3]: 81%; IC50 [4]: 1250 nM; half-life [5]: 1.27 h; concentration at 4 h [43]: 100 nM; IC50 [6]: 1920 nM; AUC(0-t) at 8 h [7]: 2.45 µM·h; Ratio IC50 [44]: 4; solubility kinetic [8]: 0.43 µM (≈ 0.146 µg/mL); Cmax [9]: 1060 nM; IC50 [10]: 2250 nM
